The values below come from US20250282799A1, “SUBSTITUTED PYRIDO[4,3-d]PYRIMIDINES AS KRAS MODULATORS” (Alterome Therapeutics, Inc., priority 2023, published 2025).

This assay deals with KRAS G12V dependent lung adenocarcinoma cell line, NCI-H441. The experiment in a line: Cellular pERK (Thr202/Tyr204) FRET/HTRF assay. In kind it is cell-based. To be noted: Homo sapiens, NCI-H441, cellular pERK (Thr202/Tyr204) HTRF, NCI-H441 cells. An outline of the steps:
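Read-out is a wash-free FRET sandwich immunoassay for endogenous ERK1/2 phosphorylated on Thr202/Tyr204. Signal was measured in NCI-H441 lung adenocarcinoma cells after 1 hr compound exposure at 37 °C. IC50 values come from fitted concentration-response curves.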
In turn, `[2H]C([2H])(F)Oc1c(F)ccc2cc(N)cc(-c3ncc4c(N5CCOC[C@H]6[C@H](F)[C@H]65)nc(OC[C@@]56CCCN5CC5(CC5)C6)nc4c3F)c12` [Example 200, 4-(2-(((S)-dihydro-1′H,3′H-spiro[cyclopropane-1,2′-pyrrolizin]-7a′(5′H)-yl)methoxy)-8-fluoro-4-((1S,7S,8S)-8-fluoro-5-oxa-2-azabicyclo[5.1.0]octan-2-yl)pyrido[4,3-d]pyrimidin-7-yl)-6-fluoro-5-(fluoromethoxy-d2)naphthalen-2-amine] returned an IC50 of under 50 nM.
The result for `[2H]C([2H])(Oc1nc(N2CCOC[C@H]3[C@H](F)[C@H]32)c2cnc(-c3cc(N)cc4ccc(F)c(CC)c34)c(F)c2n1)[C@@]12CCCN1C[C@H](F)C2` [Example 201, 5-ethyl-6-fluoro-4-(8-fluoro-4-((1S,7S,8S)-8-fluoro-5-oxa-2-azabicyclo[5.1.0]octan-2-yl)-2-(((2R,7aS)-2-fluorotetrahydro-1H-pyrrolizin-7a(5H)-yl)methoxy-d2)pyrido[4,3-d]pyrimidin-7-yl)naphthalen-2-amine] reads under 50 nM; that for `C#Cc1c(F)ccc2cc(N)cc(-c3ncc4c(N5CCOC[C@H]6[C@H](F)[C@H]65)nc(OC[C@]56CC7(CC7)CN5CCC65CC5)nc4c3F)c12` [Example 206, 4-(2-(((R)-Dihydro-5′H-dispiro[cyclopropane-1,1′-pyrrolizine-6′,1″-cyclopropan]-7a′(7′H)-yl)methoxy)-8-fluoro-4-((1S,7S,8S)-8-fluoro-5-oxa-2-azabicyclo[5.1.0]octan-2-yl)pyrido[4,3-d]pyrimidin-7-yl)-5-ethynyl-6-fluoronaphthalen-2-amine], under 50 nM; that for `C#Cc1c(F)ccc2cc(N)cc(-c3ncc4c(N5CCOC[C@H]6[C@H](F)[C@H]65)nc(OC[C@@]56CC7(CC7)CN5CCC65CC5)nc4c3F)c12` [Example 207, 4-(2-(((S)-dihydro-5′H-dispiro[cyclopropane-1,1′-pyrrolizine-6′,1″- cyclopropan]-7a′(7′H)-yl)methoxy)-8-fluoro-4-((1S,7S,8S)-8-fluoro-5-oxa-2-azabicyclo[5.1.0]octan-2-yl)pyrido[4,3-d]pyrimidin-7-yl)-5-ethynyl-6-fluoronaphthalen-2-amine], under 50 nM.
Then `C#Cc1c(F)ccc2cc(N)cc(-c3ncc4c(N5CCOC[C@H]6[C@H](F)[C@H]65)nc(OC[C@@]56CCCN5C[C@H](F)C6)nc4c3F)c12` [Example 212, 5-Ethynyl-6-fluoro-4-(8-fluoro-4-((1S,7S,8S)-8-fluoro-5-oxa-2-azabicyclo[5.1.0]octan-2-yl)-2-(((2R,7aS)-2-fluorotetrahydro-1H-pyrrolizin-7a(5H)-yl)methoxy)pyrido[4,3-d]pyrimidin-7-yl)naphthalen-2-amine], with under 50 nM.
Then `[2H]C([2H])(Oc1nc(N2CCOC[C@H]3[C@H](F)[C@H]32)c2cnc(-c3cc(N)cc4ccc(F)c(C#C)c34)c(F)c2n1)C12CCCN1CCC2` [Example 213, 5-ethynyl-6-fluoro-4-(8-fluoro-4-((1S,7S,8S)-8-fluoro-5-oxa-2-azabicyclo[5.1.0]octan-2-yl)-2-((tetrahydro-1H-pyrrolizin-7a(5H)-yl)methoxy-d2)pyrido[4,3-d]pyrimidin-7-yl)naphthalen-2-amine], with under 50 nM; and `[2H]C([2H])(Oc1nc(N2CCOC[C@H]3[C@H](F)[C@H]32)c2cnc(-c3cc(N)cc4ccc(F)c(C#C)c34)c(F)c2n1)[C@@]12CCCN1CC(F)(F)C2` [Example 220, 4-(2-(((S)-2,2-difluorotetrahydro-1H-pyrrolizin-7a(5H)-yl)methoxy-d2)-8-fluoro-4-((1S,7S,8S)-8-fluoro-5-oxa-2-azabicyclo[5.1.0]octan-2-yl)pyrido[4,3-d]pyrimidin-7-yl)-5-ethynyl-6-fluoronaphthalen-2-amine], with under 50 nM.
For `C=C1CN2CCC3(CC3)[C@@]2(COc2nc(N3CCOC[C@H]4[C@H](F)[C@H]43)c3cnc(-c4cc(N)c(F)c(C)c4C(F)(F)F)c(F)c3n2)C1` [Example 226, 2-fluoro-5-(8-fluoro-4-((1S,7S,8S)-8-fluoro-5-oxa-2-azabicyclo[5.1.0]octan-2-yl)-2-(((R)-6′-methylenetetrahydrospiro[cyclopropane-1,1′-pyrrolizin]-7a′(5′H)-yl)methoxy)pyrido[4,3-d]pyrimidin-7-yl)-3-methyl-4-(trifluoromethyl)aniline], the IC50 is under 50 nM.
For the compound `[2H]C([2H])(F)Oc1c(F)ccc2cc(N)cc(-c3ncc4c(N5CCOC[C@H]6[C@H](F)[C@H]65)nc(OC[C@@]56CC7(CC7)CN5CCC65CC5)nc4c3F)c12` [Example 227, 4-(2-(((S)-dihydro-5′H-dispiro[cyclopropane-1,1′-pyrrolizine-6′,1″- cyclopropan]-7a′(7′H)-yl)methoxy)-8-fluoro-4-((1S,7S,8S)-8-fluoro-5-oxa-2-azabicyclo[5.1.0]octan-2-yl)pyrido[4,3-d]pyrimidin-7-yl)-6-fluoro-5-(fluoromethoxy-d2)naphthalen-2-amine], the IC50 is under 50 nM.
The result for `[2H]C([2H])(F)Oc1c(F)ccc2cc(N)cc(-c3ncc4c(N5CCOC[C@H]6[C@H](F)[C@H]65)nc(OC[C@]56CC7(CC7)CN5CCC65CC5)nc4c3F)c12` [Example 228, 4-(2-(((R)-dihydro-5′H-dispiro[cyclopropane-1,1′-pyrrolizine-6′,1″- cyclopropan]-7a′(7′H)-yl)methoxy)-8-fluoro-4-((1S,7S,8S)-8-fluoro-5-oxa-2-azabicyclo[5.1.0]octan-2-yl)pyrido[4,3-d]pyrimidin-7-yl)-6-fluoro-5-(fluoromethoxy-d2)naphthalen-2-amine] reads under 50 nM; that for `[2H]C([2H])(Oc1nc(N2CCOC[C@H]3[C@H](F)[C@H]32)c2c(OC)nc(-c3cccc4ccc(F)c(C#C)c34)c(F)c2n1)[C@@]12CCCN1C[C@H](F)C2` [Example 235, (1S,7S,8S)-2-(7-(8-ethynyl-7-fluoronaphthalen-1-yl)-8-fluoro-2-(((2R,7aS)-2-fluorotetrahydro-1H-pyrrolizin-7a(5H)-yl)methoxy-d2)-5-methoxypyrido[4,3-d]pyrimidin-4-yl)-8-fluoro-5-oxa-2-azabicyclo[5.1.0]octane], 500 to 10000 nM; that for `[2H]C([2H])(Oc1nc(N2CCOC[C@@H]3[C@@H](F)[C@@H]32)c2c(OC)nc(-c3cccc4ccc(F)c(C#C)c34)c(F)c2n1)[C@@]12CCCN1C[C@H](F)C2` [Example 236, (1R,7R,8R)-2-(7-(8-ethynyl-7-fluoronaphthalen-1-yl)-8-fluoro-2-(((2R,7aS)-2-fluorotetrahydro-1H-pyrrolizin-7a(5H)-yl)methoxy-d2)-5-methoxypyrido[4,3-d]pyrimidin-4-yl)-8-fluoro-5-oxa-2-azabicyclo[5.1.0]octane], 500 to 10000 nM.
Then `C#Cc1c(F)ccc2cc(N)cc(-c3ncc4c(N5CCOC[C@H]6[C@H](F)[C@H]65)nc(OC[C@@]56CCC(C)(C)N5C[C@H](F)C6)nc4c3F)c12` [Example 239, 5-ethynyl-6-fluoro-4-(8-fluoro-2-(((2R,7aS)-2-fluoro-5,5-dimethyltetrahydro-1H-pyrrolizin-7a(5H)-yl)methoxy)-4-((1S,7S,8S)-8-fluoro-5-oxa-2-azabicyclo[5.1.0]octan-2-yl)pyrido[4,3-d]pyrimidin-7-yl)naphthalen-2-amine], with under 50 nM; and `[2H]C([2H])(Oc1nc(N2CCOCC3C2C3(Cl)Cl)c2cnc(-c3cc(N)cc4ccc(F)c(C#C)c34)c(F)c2n1)[C@@]12CCCN1C[C@H](F)C2` (stereo partly drawn) [Example 240, 4-(4-(8,8-dichloro-5-oxa-2-azabicyclo[5.1.0]octan-2-yl)-8-fluoro-2-(((2R,7aS)-2-fluorotetrahydro-1H-pyrrolizin-7a(5H)-yl)methoxy-d2)pyrido[4,3-d]pyrimidin-7-yl)-5-ethynyl-6-fluoronaphthalen-2-amine], with 500 to 10000 nM; and `[2H]C([2H])(Oc1nc(N2CCOC[C@H]3[C@H](F)[C@H]32)c2c(OC)nc(-c3cc(O)cc4ccc(F)c(C#C)c34)c(F)c2n1)[C@@]12CCCN1C[C@H](F)C2` [Example 241, 5-ethynyl-6-fluoro-4-(8-fluoro-4-((1S,7S,8S)-8-fluoro-5-oxa-2-azabicyclo[5.1.0]octan-2-yl)-2-(((2R,7aS)-2-fluorotetrahydro-1H-pyrrolizin-7a(5H)-yl)methoxy-d2)-5-methoxypyrido[4,3-d]pyrimidin-7-yl)naphthalen-2-ol], with under 50 nM.
Then `C#Cc1c(F)ccc2cc(N)cc(-c3ncc4c(N5CCOC[C@H]6[C@H](F)[C@H]65)nc(OC[C@@]56C=C(C)CN5CCC65CC5)nc4c3F)c12` [Example 244, 5-ethynyl-6-fluoro-4-(8-fluoro-4-((1S,7S,8S)-8-fluoro-5-oxa-2-azabicyclo[5.1.0]octan-2-yl)-2-(((S)-6′-methyl-2′,3′-dihydrospiro[cyclopropane-1,1′-pyrrolizin]-7a′(5′H)-yl)methoxy)pyrido[4,3-d]pyrimidin-7-yl)naphthalen-2-amine], with under 50 nM; and `C#Cc1c(F)ccc2cccc(-c3ncc4c(N5CCOC[C@H]6[C@H](F)[C@H]65)nc(OC[C@]56C[C@@H](F)CN5C[C@@H](CNC(C)=O)C6)nc4c3F)c12` [Example 245, N-(((2R,6R,7aS)-7a-(((7-(8-ethynyl-7-fluoronaphthalen-1-yl)-8-fluoro-4-((1S,7S,8S)-8-fluoro-5-oxa-2-azabicyclo[5.1.0]octan-2-yl)pyrido[4,3-d]pyrimidin-2-yl)oxy)methyl)-6-fluorohexahydro-1H-pyrrolizin-2-yl)methyl)acetamide], with 50 to 500 nM.
